Test results as given in article PMC4468608, “A distinct p53 target gene set predicts for response to the selective p53–HDM2 inhibitor NVP-CGM097” (eLife, 2015).
Read-outs that look alike come from different tables or passages of the source.

Assays:
[1] = PK parameters in preclinical species; assay type: in vivo; settings: Dog
[2] = PK parameters in preclinical species; assay type: in vivo; settings: Monkey
[3] = PK parameters in preclinical species; assay type: in vivo; settings: Rat
[4] = system: HCT-116 p53-null; assay: Cell proliferation assay (YOPRO); assay type: cell-based; settings: Homo sapiens, HCT116-p53-null
Experimental: (§1) Figure 1. […] (^d) Selectivity is determined by the ratio of GI50 obtained using SAOS-2 (p53-null) and SJSA-1 (p53^WT and HDM2-amplified) osteosarcoma pair of cell lines. […] The data used to generate these plots, as well as cell line identity is available in Figure 1—source data 1. […] The blue color indicates the reverse profile. Brighter colors indicate which target classes pass the 0.25 FDR cut-off.
(§2) All other cell lines were obtained from ATCC (American Type Culture Collection), DSMZ (Deutsche Sammlung von Mikroorganismen und Zellkulturen), and HSRRB (Health Science Research Resources Bank) and cultured in RPMI or Dulbecco's modified Eagle's medium plus 10% FBS (Invitrogen, Carlsbad, CA) at 37°C, 5% CO2.

[5] = system: SJSA-1 (p53WT and HDM2-amplified); assay: Cell proliferation assay (YOPRO); assay type: cell-based; settings: Homo sapiens, SJSA-1, read-out: SJSA-1 GI50
Experimental: as §1, §2

[6] = system: HCT-116 p53WT; assay: Cell proliferation assay (YOPRO); assay type: cell-based; settings: Homo sapiens, HCT-116, read-out: HCT-116 p53WT GI50
Experimental: as §1, §2

[7] = system: SAOS-2 (p53-null); assay: Cell proliferation assay (YOPRO); assay type: cell-based; settings: Homo sapiens
Experimental: as §1, §2

[8] = PK parameters in preclinical species; assay type: in vivo; settings: Mouse
[9] = single dose 0.1 mg/kg i.v. or 0.3 mg/kg p.o.
[10] = in vivo, iv, 0.1 mg/kg i.v., dose-normalized to 1 mg/kg, read-out: AUCinf i.v.
[11] = in vivo, iv, single dose 0.1 mg/kg i.v. or 0.3 mg/kg p.o.
[12] = in vivo, iv, single dose 0.1 mg/kg i.v. or 0.3 mg/kg p.o., read-out: Vss
[13] = in vivo, po, 0.3 mg/kg p.o., dose-normalized to 1 mg/kg
[14] = in vivo, po, 0.3 mg/kg p.o., dose-normalized to 1 mg/kg, read-out: AUCinf p.o.
[15] = single dose 1 mg/kg i.v. or 3 mg/kg p.o.
[16] = in vivo, iv, 1 mg/kg i.v., dose-normalized to 1 mg/kg, read-out: AUCinf i.v.
[17] = in vivo, iv, single dose 1 mg/kg i.v. or 3 mg/kg p.o.
[18] = in vivo, iv, single dose 1 mg/kg i.v. or 3 mg/kg p.o., read-out: Vss
[19] = in vivo, po, 3 mg/kg p.o., dose-normalized to 1 mg/kg
[20] = in vivo, po, 3 mg/kg p.o., dose-normalized to 1 mg/kg, read-out: AUCinf p.o.

Structure (SMILES): COc1cc2c(cc1OC(C)C)[C@H](c1ccc(Cl)cc1)N(c1ccc(N(C)C[C@H]3CC[C@H](N4CCNC(=O)C4)CC3)cc1)C(=O)C2 [NVP-CFC218]
- Oral BA ([1]; 0.1 mg/kg i.v., 0.3 mg/kg p.o.): 71 ± 8 %F
- t1/2app. [1, 9]: 14.4 ± 0.7 h
- AUC(0-inf) [1, 10]: 8.08 ± 1.68 µM·h
- clearance [1, 11]: 3 ± 1 mL/min/kg
- Vd [1, 12]: 3.6 ± 0.5 L/kg
- Tmax ([1]; in vivo, po, 0.3 mg/kg p.o.): 3.3 ± 1.2 h
- Cmax [1, 13]: 240 ± 43 nM
- AUC(0-inf) [1, 14]: 5.74 ± 0.68 µM·h
- Oral BA ([2]; 0.1 mg/kg i.v., 0.3 mg/kg p.o.): 14 ± 2 %F
- t1/2app. [2, 9]: 2.6 ± 0.3 h
- AUC(0-inf) [2, 10]: 2.37 ± 0.31 µM·h
- clearance [2, 11]: 11 ± 2 mL/min/kg
- Vd [2, 12]: 2.1 ± 0.3 L/kg
- Tmax ([2]; in vivo, po, 0.3 mg/kg p.o.): 1 ± 0.1 h
- Cmax [2, 13]: 77 ± 14 nM
- AUC(0-inf) [2, 14]: 0.34 ± 0.05 µM·h
- Oral BA ([3]; 1 mg/kg i.v., 3 mg/kg p.o.): 49 ± 15 %F
- t1/2app. [3, 15]: 9.3 ± 1.9 h
- AUC(0-inf) [3, 16]: 2.21 ± 0.21 µM·h
- clearance [3, 17]: 12 ± 1 mL/min/kg
- Vd [3, 18]: 8 ± 1.8 L/kg
- Tmax ([3]; in vivo, po, 3 mg/kg p.o.): 4 ± 1.4 h
- Cmax [3, 19]: 75 ± 23 nM
- AUC(0-inf) [3, 20]: 1.07 ± 0.34 µM·h
- IC50 ([4]; HCT-116 p53-null cells remained insensitive): ≥ 10 µM
- GI50 ([4]; mean ± SD, n ≥ 8): 15.9 µM
- GI50 [5]: 0.353 ± 0.172 µM
- GI50 [6]: 0.473 ± 0.1 µM
- GI50 ([7]; SAOS-2, mean ± SD, n ≥ 8): 19.8 µM
- IC50 ([7]; SAOS-2 p53 null cells remained insensitive): ≥ 10 µM
- Oral BA ([8]; 1 mg/kg i.v., 3 mg/kg p.o.): 43 %F
- t1/2app. [8, 15]: 3.6 h
- AUC(0-inf) [8, 16]: 2.8 µM·h
- clearance [8, 17]: 9 mL/min/kg
- Vd [8, 18]: 3.1 L/kg
- Tmax ([8]; in vivo, po, 3 mg/kg p.o.): 2 h
- Cmax [8, 19]: 94 nM
- AUC(0-inf) [8, 20]: 1.2 µM·h
